Experimental data: patent publication US7238813B2, “Chemical compounds” (Smithkline Beecham Corporation, priority 2000, dated 2007)

Tests used:
[1] = target: T1, GST-TIE2 (intracellular domains of human TIE2) (Homo sapiens, UniProt Q02763); assay: TIE-2 enzyme assay (TIE2-E), LANCE method; format: biochemical; settings: 80 uM ATP
T1 construct: made in house
Procedure, shortened: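 Baculovirus GST-TIE2 (human intracellular domain, aa 762–1104) preactivated 30 min at RT with 2 mM ATP, then reacted 30 min at RT with 1 μM D1-15 peptide, 80 uM ATP, 10 mM MgCl2, pH 7.4, 2.4% DMSO. EDTA-stopped; LANCE Eu-anti-pTyr/streptavidin-APC read-out. IC50 by nonlinear regression, reported as pIC50.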

[2] = target: T2, TIE2 intracellular domain/c-fms extracellular domain (TIE2/c-fms) chimeric protein expressing mouse 3T3 cells (Homo sapiens, UniProt Q02763); assay: TIE-2 autophosphorylation assay (TIE2-C), ELISA; format: cell-based; settings: TIE2/c-fms 3T3 cells, MCSF activation
T2 construct: a TIE2 intracellular domain/c-fms extracellular domain (TIE2/c-fms) chimeric protein; expressed in transfected cells; host or cells: mouse 3T3 cells
T2 sequence (Q02763 770-1124 limits assumed, change not shown): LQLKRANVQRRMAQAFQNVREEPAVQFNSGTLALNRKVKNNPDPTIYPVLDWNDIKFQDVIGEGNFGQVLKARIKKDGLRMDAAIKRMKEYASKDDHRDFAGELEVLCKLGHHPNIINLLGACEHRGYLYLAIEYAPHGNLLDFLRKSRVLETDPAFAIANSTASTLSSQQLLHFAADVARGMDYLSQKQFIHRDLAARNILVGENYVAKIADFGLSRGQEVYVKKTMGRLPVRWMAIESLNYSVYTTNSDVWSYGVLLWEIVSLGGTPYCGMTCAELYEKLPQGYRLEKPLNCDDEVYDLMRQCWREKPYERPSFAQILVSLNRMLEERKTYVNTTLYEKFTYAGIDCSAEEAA
Procedure, shortened: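 Mouse 3T3 cells expressing TIE2 intracellular/c-fms extracellular chimera treated with compound for 1 hr in serum-free DMEM (0.1% DMSO), then stimulated with MCSF. Lysates captured on anti-c-fms plates overnight at 4 °C; phosphotyrosine detected by biotin-PT66/HRP-streptavidin, OD450. IC50 by nonlinear regression, reported as pIC50.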

GST-VEGFR2 = target: T3, GST-VEGFR2 (Homo sapiens, UniProt P35968); assay: VEGF-R2 enzyme assay (VEGF-E), LANCE method; format: biochemical; settings: 75 μM ATP
T3 construct: GST-VEGFR2, baculovirus expressed recombinant constructs of the intracellular domains of human TIE2 tagged by GST; made in house
T3 sequence (P35968 786-1356 limits assumed): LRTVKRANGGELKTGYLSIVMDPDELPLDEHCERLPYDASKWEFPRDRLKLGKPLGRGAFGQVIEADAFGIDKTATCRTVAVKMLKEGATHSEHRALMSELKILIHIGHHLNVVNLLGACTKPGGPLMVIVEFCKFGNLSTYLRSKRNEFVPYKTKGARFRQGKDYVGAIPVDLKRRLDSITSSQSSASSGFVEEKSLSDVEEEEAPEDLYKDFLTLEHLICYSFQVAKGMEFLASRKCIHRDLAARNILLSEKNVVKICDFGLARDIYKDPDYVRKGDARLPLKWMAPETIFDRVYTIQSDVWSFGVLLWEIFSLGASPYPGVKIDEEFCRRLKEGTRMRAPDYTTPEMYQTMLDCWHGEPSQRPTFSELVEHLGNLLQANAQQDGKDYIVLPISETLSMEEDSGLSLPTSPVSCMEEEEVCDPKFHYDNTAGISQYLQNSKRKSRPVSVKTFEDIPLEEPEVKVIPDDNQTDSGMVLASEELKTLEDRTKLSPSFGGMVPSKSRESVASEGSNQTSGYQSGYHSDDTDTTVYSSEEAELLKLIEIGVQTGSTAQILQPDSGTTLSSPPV

[3] = tested on: Human umbilical cord endothelial cells (HUVEC); assay: VEGF-driven cellular proliferation assay: BrdU incorporation assay (VEGF-C); format: cell-based; set-up: key to VEGF-C: + = pIC50 of 5.0–6.0; ++ = pIC50 of 6.0–7.0; +++ = pIC50 of > 7.0; − = a negative or inconclusive result; settings: for IC50: Homo sapiens
Description: VFGF-driven Cellular Proliferation Assay: BrdU Incorporation Assay (VEGF-C)
Human umbilical cord endothelial cells (HUVEC, Clonetics, CC2519) were passaged in Type I collagen-coated 100-mm petridishes in EGM-MV medium (Clonetics, CC3125) at 37° C. in a humidified 5% CO2, 95% air incubator. (HUVEC passaged more than 6 times in vitro were discarded and not subjected to assaying.) The cells were harvested using trypsin/EDTA, counted using a haemocytometer and plated at 5000 cells/well in a Type I-collagen coated 96-well plate (Becton Dickinson, 354407) in M199 medium (Gibco BRL, 12340-030) containing 5% FBS (Hyclone, A 1115-L) and gentamicin (at 50 μg/ml, Gibco BRL). After incubation overnight at 37° C., the media were replaced with 100 μl of M199 serum-free medium containing compounds at various concentrations with 0.6% DMSO and gentamicin. The compounds were diluted in serum-free M199 medium from 10 mM stock solutions prepared in 100% DMSO. After a 30 min incubation at 37° C., the cells were fed with 100 μl of serum-free M199 medium containing gentamicin, 0.2% culture-grade bovine serum albumin (BSA, Sigma A1993) and 20 ng/ml of VEGF (R&D systems, 293-VE) or 0.6 ng/ml of basic FGF (R&D systems, 233-FB), and cultured at 37° C. for another 24 h. The cells were pulsed with bromodeoxyuridine (BrdU at 10 μM in serum-free M199) at 37° C. for an additional 24 h. The incorporation of BrdU into the proliferating HUVEC were analyzed using BrdU Cell Proliferation ELISA (Roche Molecular Biochemicals, 1647229) according to the manufacturer's protocols. The optical density at 450 nm was measured with a multilabel counter (ARVO SX, Wallac). The percent inhibition of cell growth was calculated relative to blank control wells. The concentration of test compound that inhibits 50% of cell growth (IC50) was interpolated using nonlinear regression (Levernberg-Marquardt) and the equation, y=Vmax (1−x/(K+x))+Y2, where “K” was equal to the IC50. The IC50, values were converted to pIC50 values, i.e., −log IC50 in Molar concentration.

T1 sequence (Q02763 762-1104): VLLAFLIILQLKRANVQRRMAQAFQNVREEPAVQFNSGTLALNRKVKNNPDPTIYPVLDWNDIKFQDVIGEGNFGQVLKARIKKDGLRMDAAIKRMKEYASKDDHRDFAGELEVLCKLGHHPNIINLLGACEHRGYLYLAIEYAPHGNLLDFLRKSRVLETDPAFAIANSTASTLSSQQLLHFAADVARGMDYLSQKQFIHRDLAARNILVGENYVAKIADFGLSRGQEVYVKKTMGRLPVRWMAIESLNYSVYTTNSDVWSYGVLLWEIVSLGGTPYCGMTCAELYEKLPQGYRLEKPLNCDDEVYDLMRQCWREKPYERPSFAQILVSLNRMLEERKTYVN

| SMILES | IC50 [1] [nM] | IC50 [2] [nM] | IC50 (GST-VEGFR2) [nM] | IC50 [3] [nM] | VEGF-C [3] |
| --- | --- | --- | --- | --- | --- |
| COC(=O)Nc1cn2cc(Oc3ccc(NC(=O)Nc4cc(C(F)(F)F)ccc4F)cc3)ccc2n1 [Example 68, Methyl N-(5-(4-((2-fluoro-5-(trifluoromethyl)phenyl)aminocarbonylamino)phenoxy)-3a-aza-2-indolyl)carbamate] | < 100 | < 100 | < 100 | < 100 |  |
| COC(=O)Nc1nc2cc([S+]([O-])c3ccc(NC(=O)Nc4cc(C(F)(F)F)ccc4F)cc3)ccc2[nH]1 (stereo not shown) [Example 13, Methyl N-(5-(4-((2-fluoro-5-(trifluoromethyl)phenyl)aminocarbonylamino)phenylsulfinyl)-1H-benzimidazol-2-yl)carbamate] | < 100 | 100 to 1000 | 100 to 1000 |  | − |
| O=C(Nc1ccc(Oc2ccc3[nH]c(NC(=O)OCc4ccccc4)nc3c2)cc1)Nc1cc(C(F)(F)F)ccc1F [Example 81, Benzyl N-(5-(4-((2-fluoro-5-(trifluoromethyl)phenyl)aminocarbonylamino)phenoxy)-1H-benzimidazol-2-yl)carbamate] | < 100 | < 100 | < 100 |  | − |
| O=C(Nc1ccc(Oc2ccc3nc(NC(=O)c4cccnc4)[nH]c3c2)cc1)Nc1cc(C(F)(F)F)ccc1F [Example 93, N-(5-(4-((2-Fluoro-5-(trifluoromethyl)phenyl)aminocarbonylamino)phenoxy)-1H-benzimidazol-2-yl)-3-pyridinecarboxamide] | < 100 | < 100 | < 100 | 1000 to 10000 |  |
| COC(=O)Nc1nc2cc(Oc3ccc(NC(=O)Nc4cc([N+](=O)[O-])ccc4C)cc3)ccc2[nH]1 [Example 47, Methyl N-(5-(4-((2-methyl-5-nitrophenyl)aminocarbonylamino)phenoxy)-1H-benzimidazol-2-yl)carbamate] | < 100 | < 100 | < 100 |  | − |
| COC(=O)Nc1nc2cc(Oc3ccc(NC(=O)Nc4cc([N+](=O)[O-])ccc4F)cc3)ccc2[nH]1 [Example 46, Methyl N-(5-(4-((2-fluoro-5-nitrophenyl)aminocarbonylamino)phenoxy)-1H-benzimidazol-2-yl)carbamate] | < 100 | < 100 | < 100 |  | − |
| COC(=O)Nc1nc2ccc(Oc3ccc(NC(=O)Nc4cc(C(F)(F)F)ccc4F)cc3)cc2s1 [Example 64, Methyl N-(6-(4-((6-fluoro-3-(trifluoromethyl)phenyl)aminocarbonylamino)phenoxy)-benzthiazol-2-yl)carbamate] | < 100 | < 100 | < 100 | < 100 |  |
| COC(=O)Nc1nc2cc(S(=O)(=O)c3ccc(NC(=O)Nc4cc(C(F)(F)F)ccc4F)cc3)ccc2[nH]1 [Example 12, Methyl N-(5-(4-((2-fluoro-5-(trifluoromethyl)phenyl)aminocarbonylamino)phenylsulfonyl)-1H-benzimidazol-2-yl)carbamate] | 100 to 1000 | < 100 | 1000 to 10000 |  | − |
| O=C(CCc1cccnc1)Nc1nc2cc(Oc3ccc(NC(=O)Nc4cc(C(F)(F)F)ccc4F)cc3)ccc2[nH]1 [Example 88, N-(5-(4-((2-Fluoro-5-(trifluoromethyl)phenyl)aminocarbonylamino)phenoxy)-1H-benzimidazol-2-yl)-3-(pyridine-3-yl)propionamide] | < 100 | < 100 | < 100 | < 100 |  |
| COC(=O)Nc1nc2ccc(Oc3ccc(NC(=O)Nc4cc(C(F)(F)F)ccc4F)cc3)cc2n1CCN1CCOCC1 [Example 71, Methyl N-(6-(4-((2-fluoro-5-(trifluoromethyl)phenyl)aminocarbonylamino)phenoxy)-1-(2-(4-morpholino)ethyl)-1H-benzimidazol-2-yl)carbamate] | < 100 | 100 to 1000 | < 100 | 1000 to 10000 |  |
| COCC(=O)Nc1nc2cc(Oc3ccc(NC(=O)Nc4cc(C(F)(F)F)ccc4F)cc3)ccc2[nH]1 [Example 31, N-(5-(4-((2-Fluoro-5-(trifluoromethyl)phenyl)aminocarbonylamino)phenoxy)-1H-benzimidazol-2-yl)-2-methoxyacetamide] | < 100 | < 100 | < 100 | < 100 |  |

More lines, main results first:

| IC50 [1] [nM] | IC50 [2] [nM] | IC50 (GST-VEGFR2) [nM] | SMILES | IC50 [3] [nM] | VEGF-C [3] |
| --- | --- | --- | --- | --- | --- |
| < 100 | < 100 | < 100 | COC(=O)Nc1nc2cc(Oc3ccc(NC(=O)Nc4cc(OC)ccc4OC)cc3)ccc2[nH]1 [Example 42, Methyl N-(5-(4-((2,5-dimethoxyphenyl)aminocarbonylamino)phenoxy)-1H-benzimidazol-2-yl)carbamate] | 100 to 1000 |  |
| < 100 | < 100 | < 100 | COC(=O)Nc1nc2cc(Oc3ccc(NC(=O)Nc4cc(F)cc(C(F)(F)F)c4)cc3)ccc2[nH]1 [Example 50, Methyl N-(5-(4-((3-fluoro-5-(trifluoromethyl)phenyl)aminocarbonylamino)phenoxy)-1H-benzimidazol-2-yl)carbamate] | 100 to 1000 |  |
| < 100 | < 100 | < 100 | COC(=O)Nc1nc2cc(Oc3ccc(NC(=O)Nc4cc(C(F)(F)F)ccc4F)cn3)ccc2[nH]1 [Example 37, Methyl N-(5-(5-((2-fluoro-5-(trifluoromethyl)phenyl)aminocarbonylamino)-2-pyridyloxy)-1H-benzimidazol-2-yl)carbamate] |  | − |
| < 100 | < 100 | < 100 | COC(=O)Nc1nc2ccc(Oc3ccc(NC(=O)Nc4cc(C(F)(F)F)ccc4F)cc3)cc2o1 [Example 115, Methyl N-(6-(4-((2-fluoro-5-(trifluoromethyl)phenyl)aminocarbonylamino)phenoxy)benzoxazol-2-yl)carbamate] | < 100 |  |
| < 100 | < 100 | < 100 | COC(=O)Nc1nc2cc(Sc3ccc(NC(=O)Nc4cc(C(F)(F)F)ccc4Cl)cc3)ccc2[nH]1.Cl [Example 51, Methyl N-(5-(4-((2-chloro-5-(trifluoromethyl)phenyl)aminocarbonylamino)phenylthio)-1H-benzimidazol-2-yl)carbamate hydrochloride] |  | − |
| < 100 | < 100 | < 100 | COCCOCCOCC(=O)Nc1nc2ccc(Oc3ccc(NC(=O)Nc4cc(C(F)(F)F)ccc4F)cc3)cc2[nH]1 [Example 33, N-(5-(4-((2-Fluoro-5-(trifluoromethyl)phenyl)aminocarbonylamino)phenoxy)-1H-benzimidazol-2-yl)(2-(2-(methoxy)ethoxy)ethoxy)acetamide] | < 100 |  |
| < 100 | < 100 | < 100 | COC(=O)Nc1nc2cc(Oc3ccc(NC(=O)Nc4cccc(C(F)(F)F)c4)cc3)ccc2[nH]1 [Example 19, Methyl N-(5-(4-((3-(trifluoromethyl)phenyl)aminocarbonylamino)phenoxy)-1H-benzimidazol-2-yl)carbamate] |  | − |
| 100 to 1000 | < 100 | 1000 to 10000 | COC(=O)Nc1nc2ccc(Sc3ccc(NC(=O)Nc4cc(OC)cc(OC)c4)cc3)cc2[nH]1 [Example 5, Methyl N-(5-(4-((3,5-dimethoxyphenyl)aminocarbonylamino)phenylthio)-1H-benzimidazol-2-yl)carbamate] |  | − |
